PMC12527922, “Cocaine chemogenetics blunts drug-seeking by synthetic physiology” (Nature, 2025)
Where “and” joins values, the source holds several entries; their conditions need not be identical. Equal entries are not always repeated.

System: GRABDA dopamine sensor, nucleus accumbens shell
Experiment: Fibre photometry of dopamine (GRABDA) after cocaine administration
Format: in vivo, rat
Set-up: GRABDA dopamine response per dose (sheet 4i), individual rats / GRABDA dopamine response per dose (sheet 4i), Mean: unit not given here
Details: for GRABDA dopamine signal, Mean / GRABDA dopamine signal, individual rats: Cocaine 5 mg/kg; for GRABDA dopamine signal, AVG: ED Fig. 9a, Cocaine 10 mg/kg
Protocol: Male Sprague–Dawley rats were anaesthetized with isoflurane (1.5–2%) and then placed onto a stereotaxic frame (Kopf) and injected with AAV5-Syn::coca-5HT3-IRES-mCherry (0.5 µl, 4.95 × 10^12 vg per ml) into the LHb (AP, −3.8 mm relative to bregma; ML, ±0.7 mm; DV, −5.25 mm, at a 10° angle) (n = 5) or underwent sham surgery (n = 6). Rats were also implanted with an optic fibre (400 µm core, 0.50 NA) attached to a 2.5 mm diameter ferrule (Thorlabs) directed to the medial shell of the nucleus accumbens (AP, +1.7 mm relative to bregma; ML, ±0.9 mm; DV, −7.0 mm). To ensure that AAV9-Syn::GRABDA1m was transduced at the direct vicinity of the fibre tip, we coated the fibre with the AAV (0.4 µl, 5 × 10^12 vg per ml) using a silk fibroin film before its implantation as previously described.
For fibre photometry, dopamine (GRABDA) dynamics were measured using a Tucker-Davis Technologies (TDT) system in anaesthetized rats. […] Data were acquired at 1 kHz. On the testing day, rats were anaesthetized (isoflurane: induction, 5%; maintenance, 3%) and attached to a photometry patch cord (400 μm core, 0.50 NA). GRABDA signals were then collected for 5 min, followed by a saline i.p. injection, and additional GRABDA signal measurement for 20 min. Cocaine was then injected i.p. at 20, 10 or 5 mg per kg, and the GRABDA signal was measured for an additional 20 min. Each rat was tested three times with cocaine doses administered in randomized order. Fibre photometry analyses were performed using scripts in MATLAB R2023b (MathWorks) based on codes from the Barker (https://github.com/djamesbarker)[64] and Lerner (https://github.com/talialerner/)[65] laboratories. […] The GRABDA signal was normalized to values at 1 min before saline or cocaine injection and shown as the average z-scored activity per min. […] Fibre photometry data are represented as mean ± s.e.m. Statistical analyses were performed using Prism 10 (GraphPad).

In the case of `COC(=O)[C@H]1[C@@H](OC(=O)c2ccccc2)C[C@@H]2CC[C@H]1N2C` [cocaine], the “GRABDA dopamine response per dose (sheet 4i), Mean” value (Coca-5HT3 rats, Dose 5 mg/kg) is reported as -63058.3, the “GRABDA dopamine response per dose (sheet 4i), individual rats” value (Coca-5HT3 rats, Dose 5 mg/kg) is reported as -172031 and 384223 and 532188 and -477527 and -582145 and the “GRABDA dopamine response per dose (sheet 4i), Mean” value (Coca-5HT3 rats, Dose 10 mg/kg) is reported as 347550. For the same compound, the “GRABDA dopamine response per dose (sheet 4i), individual rats” value (Coca-5HT3 rats, Dose 10 mg/kg) was 537591 and 787483 and 404806 and 428321 and -420452, the “GRABDA dopamine response per dose (sheet 4i), Mean” value (Coca-5HT3 rats, Dose 20 mg/kg) was 29421.8 and the “GRABDA dopamine response per dose (sheet 4i), individual rats” value (Coca-5HT3 rats, Dose 20 mg/kg) was -332785 and -760751 and 326619 and 420379 and 493647. The “GRABDA dopamine signal, Mean” value (Time 0, sheet 4g, 6 rats) was 0, the “GRABDA dopamine signal, Mean” value (Time 0, sheet 4h, 5 rats) was 0.3508 and the “GRABDA dopamine signal, Mean” value (Time 1, sheet 4g, 6 rats) was 0.02583. For the same compound, the “GRABDA dopamine signal, Mean” value (Time 1, sheet 4h, 5 rats) was 0.1222, the “GRABDA dopamine signal, Mean” value (Time 2, sheet 4g, 6 rats) was 0.2299 and the “GRABDA dopamine signal, Mean” value (Time 2, sheet 4h, 5 rats) was 0.04413. The “GRABDA dopamine signal, Mean” value (Time 3, sheet 4g, 6 rats) was 0.7586, the “GRABDA dopamine signal, Mean” value (Time 3, sheet 4h, 5 rats) was 0.02999 and the “GRABDA dopamine signal, individual rats” value (Time 4, sheet 4g) was 0.7973 and 0.9252 and 2.611 and 0.5744 and 0.4159 and 0.8485. The “GRABDA dopamine signal, Mean” value (Time 4, sheet 4g, 6 rats) was 1.0287, the “GRABDA dopamine signal, Mean” value (Time 4, sheet 4h, 5 rats) was -0.002503 and the “GRABDA dopamine signal, individual rats” value (Time 5, sheet 4g) was 1.23 and 1.254 and 3.178 and 1.255 and 0.28 and 0.3357. The “GRABDA dopamine signal, Mean” value (Time 5, sheet 4g, 6 rats) was 1.255, the “GRABDA dopamine signal, Mean” value (Time 5, sheet 4h, 5 rats) was 0.4003 and the “GRABDA dopamine signal, individual rats” value (Time 6, sheet 4g) was 1.399 and 1.386 and 3.378 and 1.497 and 0.2966 and 0.5676. For the same compound, the “GRABDA dopamine signal, Mean” value (Time 6, sheet 4g, 6 rats) was 1.4208, the “GRABDA dopamine signal, Mean” value (Time 6, sheet 4h, 5 rats) was 0.7136 and the “GRABDA dopamine signal, individual rats” value (Time 7, sheet 4g) was 1.395 and 1.753 and 3.423 and 2.3 and 0.321 and 1.639. For the same compound, the “GRABDA dopamine signal, Mean” value (Time 7, sheet 4g, 6 rats) was 1.805, the “GRABDA dopamine signal, Mean” value (Time 7, sheet 4h, 5 rats) was 0.8408 and the “GRABDA dopamine signal, individual rats” value (Time 8, sheet 4g) was 1.672 and 1.969 and 3.288 and 2.2806 and 0.5769 and 1.2461. The “GRABDA dopamine signal, Mean” value (Time 8, sheet 4g, 6 rats) was 1.839, the “GRABDA dopamine signal, Mean” value (Time 8, sheet 4h, 5 rats) was 0.8223 and the “GRABDA dopamine signal, individual rats” value (Time 9, sheet 4g) was 1.777 and 2.101 and 2.8254 and 2.6993 and 0.4303 and 1.7436. For the same compound, the “GRABDA dopamine signal, Mean” value (Time 9, sheet 4g, 6 rats) was 1.93, the “GRABDA dopamine signal, Mean” value (Time 9, sheet 4h, 5 rats) was 0.8303 and the “GRABDA dopamine signal, individual rats” value (Time 10, sheet 4g) was 1.667 and 2.313 and 2.507 and 2.586 and 1.167 and 0.977. The “GRABDA dopamine signal, Mean” value (Time 10, sheet 4g, 6 rats) was 1.869, the “GRABDA dopamine signal, Mean” value (Time 10, sheet 4h, 5 rats) was 0.9165 and the “GRABDA dopamine signal, individual rats” value (Time 11, sheet 4g) was 1.6386 and 2.495 and 2.468 and 3.874 and 0.606 and 2.597. For the same compound, the “GRABDA dopamine signal, Mean” value (Time 11, sheet 4g, 6 rats) was 2.28, the “GRABDA dopamine signal, Mean” value (Time 11, sheet 4h, 5 rats) was 0.6597 and the “GRABDA dopamine signal, individual rats” value (Time 12, sheet 4g) was 1.957 and 2.546 and 2.0788 and 2.652 and 0.8197 and 2.605. For the same compound, the “GRABDA dopamine signal, Mean” value (Time 12, sheet 4g, 6 rats) was 2.11, the “GRABDA dopamine signal, Mean” value (Time 12, sheet 4h, 5 rats) was 0.5883 and the “GRABDA dopamine signal, individual rats” value (Time 13, sheet 4g) was 1.603 and 2.238 and 1.918 and 2.979 and 1.082 and 2.101. The “GRABDA dopamine signal, Mean” value (Time 13, sheet 4g, 6 rats) was 1.987, the “GRABDA dopamine signal, Mean” value (Time 13, sheet 4h, 5 rats) was 0.5593 and the “GRABDA dopamine signal, individual rats” value (Time 14, sheet 4g) was 1.849 and 2.2953 and 1.648 and 2.627 and 1.351 and 2.787. The “GRABDA dopamine signal, Mean” value (Time 14, sheet 4g, 6 rats) was 2.093, the “GRABDA dopamine signal, Mean” value (Time 14, sheet 4h, 5 rats) was 0.3765 and the “GRABDA dopamine signal, individual rats” value (Time 15, sheet 4g) was 1.345 and 2.273 and 1.221 and 3.749 and 1.032 and 2.415. The “GRABDA dopamine signal, Mean” value (Time 15, sheet 4g, 6 rats) was 2.006, the “GRABDA dopamine signal, Mean” value (Time 15, sheet 4h, 5 rats) was 0.2825 and the “GRABDA dopamine signal, individual rats” value (Time 16, sheet 4g) was 1.5856 and 2.161 and 1.005 and 2.897 and 1.378 and 2.623. The “GRABDA dopamine signal, Mean” value (Time 16, sheet 4g, 6 rats) was 1.942, the “GRABDA dopamine signal, Mean” value (Time 16, sheet 4h, 5 rats) was 0.2717 and the “GRABDA dopamine signal, individual rats” value (Time 17, sheet 4g) was 1.282 and 2.066 and 0.8019 and 2.5132 and 1.107 and 1.846. For the same compound, the “GRABDA dopamine signal, Mean” value (Time 17, sheet 4g, 6 rats) was 1.6029, the “GRABDA dopamine signal, Mean” value (Time 17, sheet 4h, 5 rats) was 0.2019 and the “GRABDA dopamine signal, individual rats” value (Time 18, sheet 4g) was 1.176 and 1.956 (2×) and 0.485 and 2.977 and 1.512. For the same compound, the “GRABDA dopamine signal, Mean” value (Time 18, sheet 4g, 6 rats) was 1.677, the “GRABDA dopamine signal, Mean” value (Time 18, sheet 4h, 5 rats) was 0.2838 and the “GRABDA dopamine signal, individual rats” value (Time 19, sheet 4g) was 1.43 and 1.847 and 0.2727 and 2.8958 and 1.19 and 1.677. The “GRABDA dopamine signal, Mean” value (Time 19, sheet 4g, 6 rats) was 1.552, the “GRABDA dopamine signal, Mean” value (Time 19, sheet 4h, 5 rats) was 0.4407 and the “GRABDA dopamine signal, individual rats” value (Time -1, sheet 4g) was 0.1891 and 0.00306 and 0.03687 and -0.1715. For the same compound, the “GRABDA dopamine signal, Mean” value (Time -1, sheet 4g, 6 rats) was 0.08979, the “GRABDA dopamine signal, Mean” value (Time -1, sheet 4h, 5 rats) was -0.1218 and the “GRABDA dopamine response per dose (sheet 4i), Mean” value (Control rats, Dose 5 mg/kg) was 575620. For the same compound, the “GRABDA dopamine response per dose (sheet 4i), individual rats” value (Control rats, Dose 5 mg/kg) was 1106356 and 625102 and 499430 and 534300 and 481000 and 207530, the “GRABDA dopamine response per dose (sheet 4i), Mean” value (Control rats, Dose 10 mg/kg) was 513482 and the “GRABDA dopamine response per dose (sheet 4i), individual rats” value (Control rats, Dose 10 mg/kg) was 1063773 and 869765 and 258346 and 365520 and 172520 and 350970. The “GRABDA dopamine response per dose (sheet 4i), Mean” value (Control rats, Dose 20 mg/kg) was 564660, the “GRABDA dopamine response per dose (sheet 4i), individual rats” value (Control rats, Dose 20 mg/kg) was 543312 and 940737 and 382973 and 597550 and 499710 and 423680 and the “GRABDA dopamine signal, AVG” value (Time 0) was 0.01595. The “GRABDA dopamine signal, AVG” value (Time 1) was 0.04899, the “GRABDA dopamine signal, AVG” value (Time 2) was 0.1402 and the “GRABDA dopamine signal, AVG” value (Time 3) was 0.549. The “GRABDA dopamine signal, AVG” value (Time 4) was 0.7571.
